Source: US8563248B2, “Compositions and methods for detection of colorectal cancer” (priority 2005, dated 2013)

How the values were obtained:
IBABP mRNA = assay: Regulation of IBABP expression in Caco-2 cells, quantitative RT-PCR; assay type: cell-based, human; conditions: 100 nM, 24 h, normalized to ARPP0
Description: (§1) The expression of IBABP-L and IBABP was measured by quantitative RT-PCR. The mRNA copy number of each variant is normalized to the expression the housekeeping gene ARPP0. Values in the figure represent the average of three experiments with each replicate performed in duplicate.
(§2) To determine the relative expression levels of IBABP-L and IBABP, a two-step quantitative RT-PCR procedure was used. In the first step, complementary DNA (cDNA) was synthesized from total RNA. […] In the second step, quantitative PCT (QPCR) was carried out on a Mx 3000P Real-Time PCR System (Stratagene, La Jolla, Calif.) using a solution containing diluted cDNA (1:20; 2.0 μl), 1×SYBR Green PCR Master Mix (Applied Biosystems, Foster City, Calif.), and primers for IBABP-L, IBABP, or ARPP0 (0.25 μM). […]
(§3) Caco-2 cells were seeded in six-well plates (Falcon) at 2×10^5 cells/well. […] Cells were harvested, cellular RNA was isolated using the RNeasy Mini Kit (Qiagen) according to manufacturer instruction, and expression of IBABP variants was determined by QPCR as described above. […]

IBABP-L mRNA = assay: Regulation of IBABP-L expression in Caco-2 cells, quantitative RT-PCR; assay type: cell-based, human; conditions: 24 h, normalized to ARPP0
Description: as §1, §2, §3

BAR = target: T1, BAR (Homo sapiens, UniProt Q96RI1); conditions: gene-selective BAR modulator; cited from earlier work
T1 sequence (Q96RI1 1-486): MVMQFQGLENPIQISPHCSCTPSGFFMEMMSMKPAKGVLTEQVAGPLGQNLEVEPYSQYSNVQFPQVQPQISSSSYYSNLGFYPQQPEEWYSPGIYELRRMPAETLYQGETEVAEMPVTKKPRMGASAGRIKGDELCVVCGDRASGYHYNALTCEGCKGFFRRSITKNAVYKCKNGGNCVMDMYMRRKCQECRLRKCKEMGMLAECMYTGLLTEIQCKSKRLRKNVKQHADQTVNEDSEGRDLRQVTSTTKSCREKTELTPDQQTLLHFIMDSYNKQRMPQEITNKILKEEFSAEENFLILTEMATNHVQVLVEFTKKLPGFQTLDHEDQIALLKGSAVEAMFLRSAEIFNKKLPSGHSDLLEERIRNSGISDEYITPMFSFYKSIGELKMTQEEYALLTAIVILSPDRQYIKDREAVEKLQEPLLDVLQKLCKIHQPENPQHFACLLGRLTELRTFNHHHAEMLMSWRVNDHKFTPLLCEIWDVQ

CC1=C(/C=C/C(C)=C\C=C\C(C)=C\C(=O)O)C(C)(C)CCC1 [9cRA, 9-cis-retinoic acid]
effect on expression of IBABP (IBABP mRNA): up-regulated
effect on expression of IBABP-L (IBABP-L mRNA; 100 nM): without effect

CCCCCCOc1c(\C(C)=C/C=C/C(C)=C/C(=O)O)cc(C(C)C)cc1C(C)C [AGN34]
action on CYP7A1 (BAR): agonist
action on IBABP (BAR): antagonist
action on SHP (BAR): neutral

C[C@H](CCC(=O)O)[C@H]1CC[C@H]2[C@@H]3[C@H](O)C[C@@H]4C[C@H](O)CC[C@]4(C)[C@H]3CC[C@]12C [CDCA, chenodeoxycholic acid]
effect on expression of IBABP-L (IBABP-L mRNA; 100 μM): without effect
